Values belong to the compound of their own block, whether it stands above or below them. Active and inactive are the calls of the source. The rule behind the calls is not given here.
Experiments:
[1] = molecular target: Serine/threonine-protein kinase mTOR (Homo sapiens, UniProt P42345); experiment: Inhibition of mTOR (unknown origin) using ULight-4E-BP1 as substrate measured after 45 mins in presence of ATP by LANCE Ultra assay
[2] = molecular target: T1, Phosphatidylinositol 4,5-bisphosphate 3-kinase catalytic subunit delta isoform (Homo sapiens, UniProt O00329); experiment: Inhibition of PI3Kdelta (unknown origin) using PIP2 as substrate measured after 1 hr in presence of ATP by ADP-Glo reagent based assay
T1 sequence (O00329 whole entry): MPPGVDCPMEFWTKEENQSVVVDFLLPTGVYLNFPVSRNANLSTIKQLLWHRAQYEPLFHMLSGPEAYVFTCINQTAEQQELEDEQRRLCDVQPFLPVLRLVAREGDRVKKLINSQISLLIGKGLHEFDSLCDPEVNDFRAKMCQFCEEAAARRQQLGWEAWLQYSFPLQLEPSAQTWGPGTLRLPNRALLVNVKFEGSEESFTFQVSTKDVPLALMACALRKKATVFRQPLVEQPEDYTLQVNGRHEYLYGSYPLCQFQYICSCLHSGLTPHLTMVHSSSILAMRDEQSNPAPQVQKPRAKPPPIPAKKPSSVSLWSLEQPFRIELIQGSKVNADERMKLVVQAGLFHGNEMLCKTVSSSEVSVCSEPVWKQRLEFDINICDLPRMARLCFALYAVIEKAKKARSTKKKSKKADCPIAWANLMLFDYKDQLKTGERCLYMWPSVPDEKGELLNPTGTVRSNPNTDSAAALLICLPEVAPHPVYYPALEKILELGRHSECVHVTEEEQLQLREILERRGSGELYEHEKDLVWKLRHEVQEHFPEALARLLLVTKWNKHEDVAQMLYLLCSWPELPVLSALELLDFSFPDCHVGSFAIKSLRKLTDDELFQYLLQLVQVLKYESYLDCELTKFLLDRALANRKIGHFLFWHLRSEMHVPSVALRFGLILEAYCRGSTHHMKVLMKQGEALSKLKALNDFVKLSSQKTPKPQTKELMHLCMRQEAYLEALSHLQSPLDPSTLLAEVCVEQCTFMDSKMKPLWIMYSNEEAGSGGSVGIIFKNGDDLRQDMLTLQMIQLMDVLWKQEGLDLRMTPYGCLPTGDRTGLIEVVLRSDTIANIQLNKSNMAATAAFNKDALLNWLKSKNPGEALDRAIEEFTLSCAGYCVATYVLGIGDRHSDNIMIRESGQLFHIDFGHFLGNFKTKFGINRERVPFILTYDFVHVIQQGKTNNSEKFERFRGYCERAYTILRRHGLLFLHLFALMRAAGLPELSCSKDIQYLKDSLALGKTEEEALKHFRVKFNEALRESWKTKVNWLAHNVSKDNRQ

[3] = tested on: MDA-MB-231; experiment: Antiproliferative activity against human MDA-MB-231 cells assessed as reduction in cell viability after 48 hrs by MTT assay; type: functional, cell-based; conditions: MDA-MB-231, 48 h
[4] = tested on: HeLa; experiment: Antiproliferative activity against human HeLa cells assessed as reduction in cell viability after 48 hrs by MTT assay; type: functional, cell-based
[5] = tested on: CNE-2; experiment: Antiproliferative activity against human CNE2 cells assessed as reduction in cell viability after 48 hrs by MTT assay; type: functional, cell-based; conditions: CNE-2, 48 h
[6] = tested on: HCT-116; experiment: Antiproliferative activity against human HCT116 cells assessed as reduction in cell viability after 48 hrs by MTT assay; type: functional, cell-based; conditions: HCT-116, 48 h
[7] = tested on: HepG2; experiment: Antiproliferative activity against human HepG2 cells assessed as reduction in cell viability after 48 hrs by MTT assay; type: functional, cell-based; conditions: HepG2, 48 h
[8] = tested on: MCF7; experiment: Antiproliferative activity against human MCF-7 cells assessed as reduction in cell viability after 48 hrs by MTT assay; type: functional, cell-based; conditions: MCF7, 48 h
[9] = tested on: HCT-116; experiment: Inhibition of PI3K/mTOR signaling in human HCT116 cells assessed as reduction in AKT phosphorylation at 10 uM measured by Western blot analysis; type: cell-based
[10] = tested on: HCT-116; experiment: Inhibition of PI3K/mTOR signaling in human HCT116 cells assessed as reduction in […] phosphorylation at 10 uM measured by Western blot analysis; type: cell-based
[11] = Metabolic stability in artificial gastrointestinal fluids
[12] = Metabolic stability in rat liver microsomes assessed as compound remaining measured after 45 mins; type: ADME, Microsome; conditions: 0.75 h

IC50 [1]: 8.5 µM
Structure (SMILES): NC(=O)C1CCCCN1C(=O)c1ccc2nc(Nc3ccc(-c4nc(N5CCOCC5)nc(N5CCOCC5)n4)cc3)[nH]c2c1 (centres undefined)

IC50 [1]: 11.9 µM
Structure (SMILES): CS(=O)(=O)N1CCN(C(=O)c2ccc3nc(Nc4ccc(-c5nc(N6CCOCC6)nc(N6CCOCC6)n5)cc4)[nH]c3c2)CC1

IC50 [1]: 5.8 µM
IC50 [2]: 0.005 µM
IC50 [3]: 1.9 µM
IC50 [4]: 1.3 µM
IC50 [6]: 0.7 µM
IC50 [7]: 7.9 µM
IC50 [8]: 0.4 µM
Structure (SMILES): C[C@H](NC(=O)c1ccc2nc(Nc3ccc(-c4nc(N5CCOCC5)nc(N5CCOCC5)n4)cc3)[nH]c2c1)C(N)=O
IC50 [5]: 12.3 µM

IC50 [1]: 15.4 µM
IC50 [2]: 0.0023 µM
Structure (SMILES): NC(=O)C1CCN(C(=O)c2ccc3nc(Nc4ccc(-c5nc(N6CCOCC6)nc(N6CCOCC6)n5)cc4)[nH]c3c2)CC1

IC50 [1]: 12.9 µM
IC50 [2]: 0.044 µM
IC50 [3]: 4.8 µM
IC50 [4]: 2.4 µM
IC50 [6]: 0.3 µM
IC50 [7]: 1.3 µM
IC50 [8]: 1.2 µM
Stabilty [12]: Unstable
Structure (SMILES): O=C(c1ccc2nc(Nc3ccc(-c4nc(N5CCOCC5)nc(N5CCOCC5)n4)cc3)[nH]c2c1)N1CCOCC1
IC50 [5]: 6.9 µM
inhibition [9]: Active
inhibition [10]: Active
Stability [11]: Stable

IC50 [1]: 11.8 µM
Stabilty [12]: Stable
Structure (SMILES): NC(=O)[C@@H]1CCCN1C(=O)c1ccc2nc(Nc3ccc(-c4nc(N5CCOCC5)nc(N5CCOCC5)n4)cc3)[nH]c2c1
Stability [11]: Stable

IC50 [1]: 14.6 µM
Structure (SMILES): CN(C)C1CCN(C(=O)c2ccc3nc(Nc4ccc(-c5nc(N6CCOCC6)nc(N6CCOCC6)n5)cc4)[nH]c3c2)CC1

IC50 [1]: 5.6 µM
IC50 [2]: 0.0051 µM
IC50 [3]: 5.5 µM
IC50 [4]: 7.7 µM
IC50 [6]: 0.9 µM
IC50 [7]: 23 µM
IC50 [8]: 0.3 µM
Stabilty [12]: Stable
Structure (SMILES): NC(=O)[C@H]1CCCN1C(=O)c1ccc2nc(Nc3ccc(-c4nc(N5CCOCC5)nc(N5CCOCC5)n4)cc3)[nH]c2c1
IC50 [5]: 7.3 µM
inhibition [9]: Active
inhibition [10]: Active
Stability [11]: Stable

IC50 [1]: 13.1 µM
IC50 [2]: 0.013 µM
Structure (SMILES): CN1CCN(C(=O)c2ccc3nc(Nc4ccc(-c5nc(N6CCOCC6)nc(N6CCOCC6)n5)cc4)[nH]c3c2)CC1

IC50 [1]: 10.2 µM
Structure (SMILES): NC(=O)C1CCCN(C(=O)c2ccc3nc(Nc4ccc(-c5nc(N6CCOCC6)nc(N6CCOCC6)n5)cc4)[nH]c3c2)C1 (centres undefined)

IC50 [1]: 5.7 µM
Structure (SMILES): NC(=O)C1(N)CCN(C(=O)c2ccc3nc(Nc4ccc(-c5nc(N6CCOCC6)nc(N6CCOCC6)n5)cc4)[nH]c3c2)CC1

From ChEMBL document CHEMBL4765397, “Design, synthesis and bioevaluation of novel substituted triazines as potential dual PI3K/mTOR inhibitors” (Eur J Med Chem, 2020)
